From ChEMBL document CHEMBL1149823, “Identification of genotype-correlated sensitivity to selective kinase inhibitors by using high-throughput tumor cell line profiling” (Proc Natl Acad Sci U S A, 2007)

What was measured:
[1] = Inhibition of Mek
[2] = Inhibition of PDGF
[3] = target: T1, Vascular endothelial growth factor receptor 2 (Homo sapiens, UniProt P35968)
Description: Inhibition of VEGFR2 by cellular assay

[4] = target: Hepatocyte growth factor receptor (Homo sapiens, UniProt P08581); test: Inhibition of Met by cellular assay
[5] = target: Non-receptor tyrosine-protein kinase TYK2 (Homo sapiens, UniProt P29597); test: Inhibition of Tyk2 by cellular assay
[6] = target: Tyrosine-protein kinase ZAP-70 (Homo sapiens, UniProt P43403); test: Inhibition of ZAP70 by cellular assay
Ephrin type-A receptor 3 = Ephrin type-A receptor 3 (Homo sapiens, UniProt P29320); test: Inhibition of EphA3 by cellular assay
Ephrin type-B receptor 4 = Ephrin type-B receptor 4 (Homo sapiens, UniProt P54760); test: Inhibition of EphB4 by cellular assay
[7] = target: T1, Vascular endothelial growth factor receptor 2; remark: listed apart in the source
Description: Inhibition of KDR by cellular assay

[8] = target: Proto-oncogene tyrosine-protein kinase Src (Homo sapiens, UniProt P12931); test: Inhibition of Src by cellular assay; format: functional
[9] = target: Fibroblast growth factor receptor 1 (Homo sapiens, UniProt P11362)
Description: Inhibition of FGFR1 by cellular assay

[10] = target: Vascular endothelial growth factor receptor 1 (Homo sapiens, UniProt P17948)
Description: Inhibition of Flt1 by cellular assay

[11] = target: Mast/stem cell growth factor receptor Kit (Homo sapiens, UniProt P10721)
Description: Inhibition of c-Kit by cellular assay

[12] = target: Tyrosine-protein kinase Lck (Homo sapiens, UniProt P06239)
Description: Inhibition of Lck by cellular assay

[13] = target: Platelet-derived growth factor receptor alpha (Homo sapiens, UniProt P16234)
Description: Inhibition of PDGFRalpha by cellular assay

[14] = target: Platelet-derived growth factor receptor beta (Homo sapiens, UniProt P09619)
Description: Inhibition of PDGFRbeta by cellular assay

[15] = target: Proto-oncogene tyrosine-protein kinase receptor Ret (Homo sapiens, UniProt P07949)
Description: Inhibition of Ret by cellular assay

Angiopoietin-1 receptor = Angiopoietin-1 receptor (Homo sapiens, UniProt Q02763)
Description: Inhibition of Tie2 by cellular assay

[16] = target: Fibroblast growth factor receptor 3 (Homo sapiens, UniProt P22607)
[17] = target: Receptor-type tyrosine-protein kinase FLT3 (Homo sapiens, UniProt P36888)
Description: Inhibition of FLT3 by cellular assay

[18] = target: ALK tyrosine kinase receptor (Homo sapiens, UniProt Q9UM73)
Description: Inhibition of ALK by cellular assay

[19] = target: Macrophage-stimulating protein receptor (Homo sapiens, UniProt Q04912)
Insulin receptor = Insulin receptor (Homo sapiens, UniProt P06213)
Description: Inhibition of InsR by cellular assay

[20] = target: High affinity nerve growth factor receptor (Homo sapiens, UniProt P04629)
IMR-90 = test: Cytotoxicity against human IMR90 cells assessed as fraction of viable cells after 72 hrs relative to control; format: functional
[21] = Cytotoxicity against human G-292 Clone A141B1 cells assessed as fraction of viable cells after 72 hrs relative to control; format: functional
SNU1 = test: Cytotoxicity against human SNU1 cells assessed as fraction of viable cells after 72 hrs relative to control; format: functional
SNU-5 = test: Cytotoxicity against human SNU5 cells assessed as fraction of viable cells after 72 hrs relative to control; format: functional
[22] = Cytotoxicity against human Hs 707(A).T cells assessed as fraction of viable cells after 72 hrs relative to control; format: functional
MG-63 = test: Cytotoxicity against human MG63 cells assessed as fraction of viable cells after 72 hrs relative to control; format: functional

Description for cells: Inhibition of Bcr-abl by cellular assay

`CCN(CC)CCCCNc1ncc2cc(-c3cc(OC)cc(OC)c3)c(NC(=O)NC(C)(C)C)nc2n1` [PD-173074] gave an IC50 [1] of over 50000 nM, an IC50 [2] of 19000 nM and an EC50 [3] of 250 nM.
For `Cc1ccc(NC(=O)c2cccc(C(F)(F)F)c2)cc1N1Cc2cnc(N)nc2N(C)C1=O`, the EC50 [4] was over 2000 nM, the EC50 [5] was over 2000 nM and the EC50 [6] was over 2000 nM. For the same compound, the EC50 (Ephrin type-A receptor 3) was 2 nM, the EC50 (Ephrin type-B receptor 4) was 4 nM and the EC50 [7] was 22 nM. The EC50 [8] was 13 nM, the EC50 [9] was 80 nM and the EC50 [10] was 236 nM. The EC50 [11] was 4 nM, the EC50 [12] was 5 nM and the EC50 [13] was 4 nM. It also gave an EC50 [14] of 6 nM, an EC50 [15] of 77 nM and an EC50 (Angiopoietin-1 receptor) of 200 nM. For the same compound, the IC50 [16] was 13 nM, the EC50 [17] was over 2000 nM and the EC50 [18] was over 2000 nM. It also gave an EC50 [19] of over 2000 nM, an EC50 (Insulin receptor) of over 2000 nM and an EC50 [20] of over 2000 nM. It also gave an EC50 (cells) of 3 nM.
With `CC#CC(=O)Nc1ccc2ncnc(Nc3cccc(Br)c3)c2c1` the Activity (IMR-90) was 0.854, the Activity [21] was 1.024 and the Activity (SNU1) was 1.135. For the same compound, the Activity (SNU-5) was 1.244, the Activity [22] was 1.31 and the Activity (MG-63) was 0.97.
